One test addresses T1, kynurenine 3-hydroxylase (Rattus norvegicus, UniProt O88867).
T1 construct: incubating 10 μL of the homogenate with NADPH (2 mM), kynurenine (100 μM); from tissue; host or cells: rat liver (pellet of the homogenate, resuspended)
The test can be described thus: Inhibitory activity on kynurenine 3-hydroxylase in rat liver homogenate. The class given is biochemical. Conditions: test concentration not given. On the procedure: Study of the Inhibitory Activity on Kynurenine 3-hydroxylase in Rat Liver
Rat livers are homogenised (1:8 weight/volume) in a buffer solution comprising: • 0.25 M sucrose • 50 mM pH 7.4 Tris; • 1 mM EDTA; and • 1 mM DTT.
The homogenates are centrifuged for 10 minutes at 12 000 rpm. The pellets are resuspended in the buffer solution described above (1:2 weight/volume).
The kynurenine 3-hydroxylase inhibition is determined by incubating 10 μL of the homogenate with NADPH (2 mM), kynurenine (100 μM) and various concentrations of the test compounds in a final volume of 100 μL at 37° C. for 5 minutes.
The compounds are tested at concentrations of between 1 μM and 300 μM. 3,4-Dimethoxy-N-[4-(3-nitrophenyl)thiazol-2-yl]benzenesulfonamide is a compound from the company Hoffmann-LaRoche (Basle, see J. Med. Chem., 40 (1997), 4738). 30H-Kynurenine was tested according to the protocol described by Carpendo et al. (Neuroscience, 61 (1994), 237-244).
Each of the experiments is repeated once and the IC50 values (in μmol/L) are calculated and given in the form of a mean of these two experiments.
Results concerning representative examples of family Ih are given in Table II below, in which is indicated the measurement of the percentage of remaining kynurenine 3-hydroxylase activity relative to the control (100%).

For test [1], the system named is primary hepatocytes. The test can be described thus: Hepatic glucose production stimulated by AMPc/DEX in primary hepatocytes. The class given is cell-based, Wistar rats. On the procedure:
(§1) Study of the Effect on Glucose Production by the Liver Materials and Method:
The hepatocytes are isolated from the liver of Wistar rats fasted for 24 hours, according to the method described in Methods Cell Biol., 13 (1975), 29-83.
1) The hepatocytes are cultured for 16 to 18 hours in DMEM medium in the presence of AMP cyclase/dexamethasone at respective concentrations of 5×10^−5 M and 5×10^−7 M, with preincubation of the products at the test doses. After washing in pH 7.4 PBS buffer, the cells are incubated for three hours at 37° C. in a Krebs/AMPc/DEX buffer at the abovementioned concentrations. 0.1 μM insulin is used as reference substance. Two identical experiments are performed (Table III-1).
Quantification of the glucose is performed via a colorimetric method using glucose oxidase (IL test™ Glucose, Monarch 181633-80). The protein assay is performed on the rest of the incubation medium via the Lowry method (BIO-RAD Dc protein assay, BIO-RAD 5000116).
(§2) The results are expressed as nmoles of glucose produced per […] of proteins. The statistical test used is the t test.

The test system of test [2] is primary hepatocytes. The test is described as follows: Hepatic glucose production, basal lactate/pyruvate 2 hours, in primary hepatocytes. The class given is cell-based, Wistar rats. The conditions noted are these: for HGP % of control: Basal Lact/Pyr 2 hours. As for the experimental part:
as §1
After washing in pH 7.4 PBS buffer, the cells are incubated for two hours at 37° C. in a Krebs buffer free of glucose and of insulin, containing lactate/pyruvate (10/1 mM) in the presence or absence of the test compounds. 10 μM MICA (5-methoxyindole-2-carboxylic acid) is used as reference substance. Two identical experiments are performed (Table III-2).
The protein assay is performed on the rest of the incubation medium via the Lowry method (BIO-RAD Dc protein assay, BIO-RAD 5000116).
as §2

T1 sequence (O88867 whole entry): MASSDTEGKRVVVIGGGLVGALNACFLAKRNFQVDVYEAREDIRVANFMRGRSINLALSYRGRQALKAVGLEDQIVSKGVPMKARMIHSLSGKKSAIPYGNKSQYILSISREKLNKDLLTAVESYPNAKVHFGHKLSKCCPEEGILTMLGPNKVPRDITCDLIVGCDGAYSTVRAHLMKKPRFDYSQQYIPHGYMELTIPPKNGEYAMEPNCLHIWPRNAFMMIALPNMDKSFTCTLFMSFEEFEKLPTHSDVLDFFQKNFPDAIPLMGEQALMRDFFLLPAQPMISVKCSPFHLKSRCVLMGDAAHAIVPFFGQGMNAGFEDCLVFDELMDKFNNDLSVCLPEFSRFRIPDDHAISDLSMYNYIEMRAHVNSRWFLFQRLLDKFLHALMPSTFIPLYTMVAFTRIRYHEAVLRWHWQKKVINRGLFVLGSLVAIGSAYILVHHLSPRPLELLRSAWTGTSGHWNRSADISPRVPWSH

Take “2-(2′-naphthylthio)-4-phenyl-4-oxobutanoic acid [Ih-1]”: the “Remaining kynurenine 3-hydroxylase activity (% of control)” value on kynurenine 3-hydroxylase is recorded as 23.2%. For the same substance, the “HGP % of control” value is given as 103 % of control with primary hepatocytes [1] (1 μM); 83 % of control with primary hepatocytes [1] (10 μM); 15 % of control with primary hepatocytes [1] (100 μM); 10 % of control in the test with primary hepatocytes [2] (1 μM); 127 % of control in the test with primary hepatocytes [2] (10 μM); 95 % of control in the test with primary hepatocytes [2] (100 μM). The “hepatic glucose production in vitro (result in words)” value with primary hepatocytes [2] (primary rat hepatocytes, summary of Tables III and IV) is listed as “powerful inhibitors of hepatic glucose production in vitro”.

The record behind these values is patent US7727977B2, “Kynurenine 3-hydroxylase inhibitors for the treatment of diabetes” (Merck Patent Gesellschaft mit beschrankter Haftung, priority 2003, dated 2010).
